The text below walks through data of patent US7223543B2, “Conjugated linoleic acid isomerase and a process for the production of conjugated linoleic acid” (Teagasc Dairy Products Research Centre, priority 2001, dated 2007).

The subject of the test is B.breve 2258. The test can be described thus: Growth inhibition of B.breve 2258 by trilinolein compared with free linoleic acid. The settings on record: compared with similar concentrations of free linoleic acid. It counts as cell-based, Bifidobacterium breve. The text has this:
B.breve NCFB 2258 was further investigated for ability to utilise triglyceride bound linoleic acid as substrate for CLA production. B.breve NCFB 2258 was inoculated from a fully grown culture into MRS broth with added cysteine (0.05%) and trilinolein (C18:2, cis-9, cis-12, 99% pure, Sigma Chemical Co.), soybean oil and sunflower oil (purchased from a local grocery store) containing known linoleic acid concentrations. The triglyceride mixtures were sterile-filtered through 0.45 μm […] filters and added as 5 mg/ml aqueous solutions in 2.5% (v/v) Tween 80. Substantial vortexing was required to dissolve the fat particles. The volume of the triglyceride stock solutions added was calculated to give a final concentration of 0.2 mg linoleic acid/ml of broth. B.breve 2258 was inoculated into MRS broth in the presence of the triglyceride substrates under anaerobic conditions at 37° C. and incubated for 48 h.

For the molecule `CCCCC/C=C\C/C=C\CCCCCCCC(=O)OCC(COC(=O)CCCCCCC/C=C\C/C=C\CCCCC)OC(=O)CCCCCCC/C=C\C/C=C\CCCCC` [trilinolein], the “growth inhibition of B.breve 2258” value is reported as “did not inhibit the growth of B.breve 2258 to the same extent as similar concentrations of free linoleic acid”.
